Experimental data as given in patent US8383660B2, “Dibenzyl amine compounds and derivatives” (Pfizer Inc., priority 2006, dated 2013).
Where a name gives a salt, the structure may show the parent alone.

CCOCC1(F)CCN([C@@H](c2ccc(C(F)(F)F)cc2CN(Cc2cc(C(F)(F)F)cc(C(F)(F)F)c2)c2nnn(C)n2)C(C)C)CC1 (as salt: mesylate) [Example 213, (N-[3,5-bis(trifluoromethyl)benzyl]-N-[2-{(1R)-1-[4-(ethoxymethyl)-4-fluoropiperidin-1-yl]-2-methylpropyl}-5-(trifluoromethyl)benzyl]-2-methyl-2H-tetrazol-5-amine)]
melting point: 95 °C
